This is an account of results in patent US7417045B2, “Heterocyclic substituted pyridine or phenyl compounds with CXCR3 antagonist activity” (Schering Corporation, priority 2005, dated 2008).

Bounds are passed on as bounds.

The test addresses T1, human CXCR3 (N-delta 4) (Homo sapiens, UniProt P49682).
T1 construct: CD8 leader (N); Flag tag; expressed in transfected cells; membranes
T1 sequence (P49682 5-368 limits assumed): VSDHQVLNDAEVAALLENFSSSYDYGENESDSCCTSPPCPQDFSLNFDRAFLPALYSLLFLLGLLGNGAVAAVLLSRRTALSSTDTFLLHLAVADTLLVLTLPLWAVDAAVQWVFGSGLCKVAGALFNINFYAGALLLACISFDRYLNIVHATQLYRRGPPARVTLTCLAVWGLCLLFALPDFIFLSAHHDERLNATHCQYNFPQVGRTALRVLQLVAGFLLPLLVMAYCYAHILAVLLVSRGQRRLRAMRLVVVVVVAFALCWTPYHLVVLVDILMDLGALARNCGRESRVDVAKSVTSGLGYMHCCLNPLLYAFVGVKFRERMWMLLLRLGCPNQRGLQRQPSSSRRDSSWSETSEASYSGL
Nature of the test: Human CXCR3 (N-delta 4) Scintillation Proximity Assay (SPA), [125I] IP-10 binding. Particulars: IC50 rating; [125I] IP-10 displacement, Ba/F3-hCXCR3 (N-delta 4) membranes. The source says: The inventive compounds can readily be evaluated to determine activity at The CXCR3 receptors by known methods, such as, for example, Development of Human CXCR3 (N-delta 4) Binding Assay.
Cloning and Expression of Human CXCR3 (N-Delta 4):
The DNA encoding human CXCR3 was cloned by PCR using human genomic DNA (Promega, Madison, Wis.) as a template. The PCR primers were designed based on the published sequence of human orphan receptor GPR9 (1) with incorporated restriction sites, a Kozak consensus sequence, CD8 leader and Flag tag. The PCR product was subcloned into the mammalian expression vector pME18Sneo, a derivative of the SR-alpha expression vector (designated as pME18Sneo-hCXCR3 (N-delta 4).
IL-3-dependent mouse pro-B cells Ba/F3 were transfected by electroporation in 0.4 ml Dulbecco's PBS containing 4×10^6 cells with 20 μg of pME18Sneo-hCXCR3 (N-delta 4) plasmid DNA. Cells were pulsed at 400 Volts, 100 OHMs, 960 μFd. The transfected cells were under selection with 1 mg/ml G418 (Life Technologies, Gaithersburg, Md.). G418-resistant Ba/F3 clones were screened for CXCR3 expression by specific binding of [^125I] IP-10 (NEN Life Science Products, Boston, Mass.).
Preparation of Ba/F3-hCXCR3 (N-Delta 4) Membranes
Ba/F3 cells expressing human CXCR3 (N-delta 4) were pelleted and resuspended in the lysis buffer containing 10 mM HEPES, pH 7.5 and Complete® protease inhibitors (1 tablet per 100 ml) (Boehringer Mannheim, Indianapolis, Ind.) at a cell density of 20×10^6 cells per ml. After 5 minutes incubation on ice, cells were transferred to 4639 cell disruption bomb (Parr Instrument, Moline, Ill.) and applied with 1,500 psi of nitrogen for 30 minutes on ice. Large cellular debris was removed by centrifugation at 1,000× g. Cell membrane in the supernatant was sedimented at 100,000× g. The membrane was resuspended in the lysis buffer supplemented with 10% sucrose and stored at −80° C. Total protein concentration of the membrane was determined by BCA method from Pierce (Rockford, Ill.).
Human CXCR3 (N-Delta 4) Scintillation Proximity Assay (SPA)
For each assay point, 2 μg of membrane was preincubated for 1 hr with 300 μg wheat germ agglutinin (WGA) coated SPA beads (Amersham, Arlington Heights, Ill.) in the binding buffer (50 mM HEPES, 1 mM CaCl2, 5 mM MgCl2, 125 mM NaCl, 0.002% NaN3, 1.0% BSA) at room temperature. The beads were spun down, washed once, resuspended in the binding buffer and transferred to a 96-well Isoplate (Wallac, Gaithersburg, Md.). 25 pM of [^125I] IP-10 with tested compounds in a series of titration were added to start the reaction. After 3 hr reaction at room temperature, the amount of [^125I] IP-10 bound to the SPA beads was determined with a Wallac 1450 Microbeta counter.
(SPA uses beads or plates that emit light when radiolabelled molecules are held near them.)

In general, IC50 refers to the concentration needed to halve the response being measured. High values mean weaker potency, low ones greater potency. Turning to `CC[C@H]1CN(c2ncc(-c3ncc[nH]3)cc2Cl)CCN1C1CCN(Cc2c(F)cc(F)cc2F)CC1` [Compound 49], the IC50 is below 25 nM.

The compound `CC[C@H]1CN(c2ncc(-c3ncc[nH]3)cc2Cl)CCN1C1CCN(Cc2ccc(Cl)cc2C(=O)OC)CC1` [Compound 50] yielded an IC50 below 25 nM.

For the compound `CC[C@H]1CN(c2ncc(C3=NCCN3)cc2Cl)CCN1C1CCN(Cc2ccc(Cl)cc2C#N)CC1` [Compound 51], the concentration for half-maximal inhibition (IC50) is below 25 nM.

The compound `CC[C@H]1CN(c2ncc(-c3ncc[nH]3)cc2Cl)CCN1C1CCN(Cc2ccc(Cl)cc2-c2nnn[nH]2)CC1` [Compound 52] came in with an IC50 below 25 nM.

On to `CC[C@H]1CN(c2ncc(-c3ncc[nH]3)cc2Cl)CCN1C1CCN(Cc2ccc(Cl)cc2C(=O)NC)CC1` [Compound 53], for which the IC50 was below 25 nM.

In turn, `CC[C@H]1CN(c2ncc(C3=NCCN3)cc2Cl)CCN1C1CCN(Cc2ccc(C#CC(C)(C)O)cc2)CC1` [Compound 54] yielded an IC50 below 25 nM.

For `CC[C@H]1CN(c2ncc(-c3nccn3C(=O)c3ccc(Cl)cc3)cc2Cl)CCN1C1CCN(C(=O)c2ccc(Cl)cc2)CC1` [Compound 55], the IC50 was below 25 nM.

Consider `CC[C@H]1CN(c2ncc(C3=NCCN3)cc2Cl)CCN1C1CCN(C(=O)c2ccc(Br)cc2)CC1` [Compound 56], for which the IC50 is below 25 nM.

`CC[C@H]1CN(c2ncc(-c3ncc[nH]3)cc2Cl)CCN1C1CCN(Cc2ccc(Cl)cc2-c2n[nH]c(=O)o2)CC1` [Compound 57] gave an IC50 below 25 nM.

Take `CC[C@H]1CN(c2ncc(C3=NCCN3)cc2Cl)CCN1C1CCN(C(=O)c2ccc(Cl)cc2)CC1` [Compound 58]: the IC50 is below 25 nM.

`CC[C@H]1CN(c2c(F)cc(-c3ncc[nH]3)cc2C(F)(F)F)CCN1C1CCN(Cc2ccc(Cl)cc2F)CC1` [Compound 59]: the IC50 was below 25 nM.

Compound `CC[C@H]1CN(c2ncc(-c3ncc[nH]3)cc2Cl)CCN1C1CCN(Cc2ccc(Cl)cc2C(=O)NN)CC1` [Compound 60] had an IC50 below 25 nM.

`CC[C@H]1CN(c2ncc(C3=NCCN3)cc2Cl)CCN1C1CCN(Cc2ccc(Cl)cc2C(=O)OC)CC1` [Compound 61] registered an IC50 below 25 nM.

`CC[C@H]1CN(c2ncc(-c3ncc[nH]3)cc2Cl)CCN1C1CCN(C(=O)c2ccc(Cl)cc2C#N)CC1` [Compound 62] gave an IC50 below 25 nM.

On to `CC[C@H]1CN(c2ncc(C3=NCCN3)cc2Cl)CCN1C1CCN(C(C(=O)OC)c2ccc(Cl)cc2)CC1` (stereo partly drawn) [Compound 63], for which the IC50 was below 25 nM.

`CC[C@H]1CN(c2ncc(C3=NCCN3)cc2Cl)CCN1C1CCN([C@H](CO)c2ccc(Cl)cc2)CC1` [Compound 64]: the IC50 was below 25 nM.

`C[C@H]1CN(c2ncc(C3=NCCN3)cc2Cl)CCN1C1CCN(Cc2ccc(Cl)cc2)CC1` [Compound 65] yielded a concentration for half-maximal inhibition (IC50) below 25 nM.

In the case of `CC[C@H]1CN(c2ncc(-c3ncc[nH]3)cc2Cl)CCN1C1CCN([C@@H](C(=O)NC)c2ccc(Cl)cc2)CC1` [Compound 66], the IC50 was below 25 nM.

`CC[C@H]1CN(c2ncc(-c3ncc[nH]3)cc2Cl)CCN1C1CCN(C(=O)c2ccc(-n3cccc3)cc2)CC1` [Compound 67] had an IC50 below 25 nM.

For `CC[C@H]1CN(c2ncc(-c3ncc[nH]3)cc2Cl)CCN1C1CCN(C(=O)c2ccc(C#N)nc2)CC1` [Compound 68], the half-inhibitory concentration (IC50) was below 25 nM.

Compound `CC[C@H]1CN(c2ncc(-c3nnc[nH]3)cc2Cl)CCN1C1CCN(Cc2ccc(Cl)cc2F)CC1` [Compound 69] registered an IC50 below 25 nM.

`CC[C@H]1CN(c2ncc(-c3nnc(C)o3)cc2Cl)CCN1C1CCN(Cc2ccc(Cl)cc2F)CC1` [Compound 70] gave an IC50 below 25 nM.

`CC[C@H]1CN(c2ncc(-c3ncc[nH]3)cc2Cl)CCN1C1CCN(C(=O)c2ccc(C(=O)OC)cc2)CC1` [Compound 71] showed an IC50 below 25 nM.

In the case of `CC[C@H]1CN(c2ncc(C3=NC(C)CN3)cc2Cl)CCN1C1CCN(C(=O)c2ccc(Cl)cc2)CC1` (stereo partly drawn) [Compound 72], the IC50 was below 25 nM.

`CCNc1nnc(-c2cnc(N3CCN(C4CCN(C(=O)c5ccc(Cl)nc5N)CC4)[C@@H](CC)C3)c(Cl)c2)o1` [Compound 73]: the IC50 was below 25 nM.

The compound `CC[C@H]1CN(c2ncc(-c3ncc[nH]3)cc2Cl)CCN1C1CCN(C(=O)c2ccc(C#N)cc2)CC1` [Compound 74] had an IC50 below 25 nM.

`CCOC(=O)C1CC1c1ccc(CN2CCC(N3CCN(c4ncc(C5=NCCN5)cc4Cl)C[C@@H]3CC)CC2)cc1` (stereo partly drawn) [Compound 75] came in with an IC50 below 25 nM.

As for `CC[C@H]1CN(c2ncc(-c3ncc[nH]3)cc2Cl)CCN1C1CCN(Cc2ccc(-n3cncn3)cc2)CC1` [Compound 76], the half-maximal inhibitory concentration (IC50) is below 25 nM.

Take `Fc1cc(Cl)ccc1CN1CCC(N2CCN(c3ncc(-c4ncc[nH]4)cc3Cl)CC2C2CC2)CC1` (stereo not drawn) [Compound 77]: the IC50 was below 25 nM.

Regarding `CC[C@H]1CN(c2ncc(-c3ncc[nH]3)cc2Cl)CCN1C1CCN(C(=O)c2ccc(Cl)cc2O)CC1` [Compound 78], the concentration for half-maximal inhibition (IC50) is below 25 nM.

Consider `C[C@@H]1CN(C2CCN(Cc3ccc(Cl)cc3F)CC2)[C@@H](C)CN1c1ncc(-c2ncc[nH]2)cc1Cl` [Compound 79], for which the IC50 was below 25 nM.

With `CC[C@H]1CN(c2ncc(-c3nc(C(O)C(F)(F)F)c[nH]3)cc2Cl)CCN1C1CCN(Cc2ccc(Cl)cc2F)CC1` (stereo partly drawn) [Compound 80], the 50% inhibitory concentration (IC50) was below 25 nM.

Compound `CC[C@H]1CN(c2ncc(-c3ncc[nH]3)cc2Cl)CCN1C1CCN(C(=O)c2ccc(-n3cccc3)nc2)CC1` [Compound 81] displayed an IC50 below 25 nM.

On to `CC[C@H]1CN(c2ncc(C3=NCCN3)cc2Cl)CCN1C1CCN(C(=O)c2ccc(Cl)cc2C#N)CC1` [Compound 82], for which the IC50 was below 25 nM.

Turning to `CC[C@H]1CN(c2ncc(-c3ncc[nH]3)cc2Cl)CCN1C1CCN(CCCC(=O)c2ccc(Cl)cc2)CC1` [Compound 83], the IC50 was below 25 nM.

In the case of `CC[C@H]1CN(c2ncc(-c3nnc(COC(C)=O)o3)cc2Cl)CCN1C1CCN(Cc2ccc(Cl)cc2F)CC1` [Compound 84], the IC50 was below 25 nM.

Compound `CC[C@H]1CN(c2ncc(C3=NCCN3)cc2Cl)CCN1C1CCN(C(=O)c2ccc(Cl)cc2I)CC1` [Compound 85] registered an IC50 below 25 nM.

In turn, `CC[C@H]1CN(c2ncc(-c3ncc[nH]3)cc2Cl)CCN1C1CCN(C(=O)c2ccc(Cl)cc2I)CC1` [Compound 86] registered an IC50 below 25 nM.

Compound `CC[C@H]1CN(c2ncc(C3=NCCN3)cc2Cl)CCN1C1CCN(C(=O)c2ccc(C#N)cc2)CC1` [Compound 87] showed an IC50 below 25 nM.

With `CC[C@H]1CN(c2ncc(-c3n[nH]c(=O)[nH]3)cc2Cl)CCN1C1CCN(Cc2ccc(Cl)cc2F)CC1` [Compound 88], the IC50 was below 25 nM.

For `CC[C@H]1CN(c2ncc(-c3ncc[nH]3)cc2Cl)CCN1C1CCN([C@H](C(N)=O)c2ccc(Cl)cc2)CC1` [Compound 89], the IC50 is below 25 nM.

Compound `CC[C@H]1CN(c2ncc(-c3ncc[nH]3)cc2Cl)CCN1C1CCN([C@H](CO)c2ccc(Cl)cc2)CC1` [Compound 90] gave an IC50 below 25 nM.

In the case of `CC[C@H]1CN(c2ncc(-c3ncc[nH]3)cc2Cl)CCN1C1CCN([C@@H](C(N)=O)c2ccc(Cl)cc2)CC1` [Compound 91], the IC50 was below 25 nM.

Turning to `CC[C@H]1CN(c2ncc(-c3ncc[nH]3)cc2Cl)CCN1C1CCN(C(=O)c2ccc(C#CCOC)cc2)CC1` [Compound 92], the half-maximal inhibitory concentration (IC50) was below 25 nM.

`CC[C@H]1CN(c2ncc(C3=NCCN3)cc2Cl)CCN1C1CCN(C(=O)c2ccc(Cl)cc2C(N)=NO)CC1` [Compound 93] showed a concentration for half-maximal inhibition (IC50) below 25 nM.
